Several values for one entry are separate records, joined by “and”; a condition that tells them apart may be missing. Identical values can stand only once. Counter-ions that a name gives are not always drawn.
Columns and labels:
eosinophil infiltration [1] = assay: Murine model of Ascaris-induced bronchial inflammation: eosinophil infiltration into bronchoalveolar lavage fluid; format: in vivo; settings: mouse
Description: The VLA-4 inhibitors may be further characterized in in vivo assays. One such assay examines the inhibition of eosinophil infiltration into the bronchoalveolar lavage fluid in the mouse (murine) model. In this assay, the animals are treated with cyclophosphamide on day 0. On days 2 and 14, the animals are immunized intraperitoneally with Ascaris suum extract. Seven days later, the animals are treated with various doses of the VLA-4 inhibitor. Shortly after drug administration, the animals are challenged with Ascaris suum extract by instillation into the trachea. Bronchoalveolar lavage of the animal is performed by instilling saline into the lung, 48 hours later. Total cell and eosinophil counts in the lavage are determined.

in vivo = settings: monkey, serum, intravenous, 2 mg/kg
[2] = Pharmacokinetic evaluation in rat; format: in vivo; settings: for AUC (total area under the plasma concentration versus time curve): LC/MS/MS; for clearance / MRT: plasma, 10 mg/kg; for clearance: read-out: CL (apparent plasma clearance); for MRT: read-out: MRT (mean residence time)
[3] = Mouse bio-assay: serum concentration after oral dosing, determined by direct binding assay of diluted serum; settings: female, Balb/c, serum, po
Description: A compound was dissolved or suspended with an appropriate solvent at 1 mg/mL. Female Balb/c mice (7–9 weeks old) were given the compound orally. Blood samples were collected from the postcaval vein of the anesthetized mice after fifteen minutes. Serum was prepared and stored at −20° C. Serum concentration of the compound was determined from inhibitory activities of the diluted serum by a direct binding assay using VLA-4-expressing cells and VCAM-IgG fusion protein. Serum concentration determined by this method correlated well with the concentration determined by LC/MS/MS methodologies.

[4] = Pharmacokinetic evaluation in mouse; format: in vivo; settings: for AUC (total area under the plasma concentration versus time curve): LC/MS/MS; for clearance / MRT: plasma; for clearance: read-out: CL (apparent plasma clearance); for MRT: read-out: MRT (mean residence time)
eosinophil infiltration [5] = assay: Eosinophil accumulation model in the rat (Compound 48/80 injected into pleural cavities); format: in vivo, male Sprague Dawley rats; settings: 50 mg/kg 2 days, s.c., b.i.d. at 0 and 8 hours
Description: The compounds of the present invention may also be further characterized in other in vivo assays, such as the eosioophil accumulation model tested in the rat. Fifty μg of Compound 48/80 was injected into the pleural cavities of male Sprague Dawley rats. After 24 hrs, each cavity was washed twice with Hank's Balanced Salt Solution containing 0.2% EDTA. Total cell and eosinophil counts were determined. Test compounds were given intraveneously, orally or subcutaneously, b.i.d. at 0 and 8 hours.

[6] = iv, 10 mg/kg (i.v.), line of AUC 0–6 hr
[7] = iv, 10 mg/kg (i.v.), line of AUC 0–∞
[8] = iv, 10 mg/kg, 10 mg/kg (i.v.), line of AUC 0–6 hr
[9] = iv, 10 mg/kg, 10 mg/kg (i.v.), line of AUC 0–∞

For “4-(N′-2-methylphenylurea)phenylacetyl-LDVP-OH [reference compound]”, the “% Inhibition of Eosinophil Infiltration” value (eosinophil infiltration [1]; oral dosage of 50 mg/kg) was −2%.

Molecule `CC(C)NCC(O)COc1ccc(CC(N)=O)cc1` (centres unmarked) [ATENOLOL, reference compound] has a concentration at 5 min (in vivo) of 4060 ng/mL, a concentration at 30 min (in vivo) of 1190 ng/mL and a concentration at 1 hr (in vivo) of 771 ng/mL. For the same molecule, the concentration at 2 hr (in vivo) was 479 ng/mL, the concentration at 4 hr (in vivo) was 348 ng/mL and the concentration at 8 hr (in vivo) was 137 ng/mL.

In the case of `COc1cc(C(=O)O)ccc1C#CC1CCCN1C(=O)Cc1ccc(NC(=O)Nc2ccccc2C)c(OC)c1` (centres unmarked) [Compound 36, 3-methoxy4-[2-[1-[3-methoxy4-[N′-(2-methylphenyl)ureido]phenylacetyl]-2-pyrrolidinyl]ethynyl]benzoic acid], the “inhibition of eosinophil infiltration” value (eosinophil infiltration [1]; oral dosage of 30 mg/kg) is reported as 49% and the melting point is reported as 141 to 145 °C.

With `Cc1cc(CC(=O)N2C[C@@H](F)C[C@H]2COc2ccc(C(=O)O)cc2)ccc1NC(=O)Nc1ccccc1Cl` [Compound 79, 4-[1-[4-[N′-(2-chlorophenyl)ureido]-3-methylphenylacetyl]-(4S)-fluoro-(2S)-pyrrolidinyl]methoxybenzoic acid] the “AUC (total area under the plasma concentration versus time curve)” value ([2]; 10 mg/kg (i.v.), 0–6 hr) was 5259 (0–6 hr) ng · h/mL, the “AUC (total area under the plasma concentration versus time curve)” value ([2]; 10 mg/kg (i.v.), 0–∞) was 5389 (0–∞) ng · h/mL and the “AUC (total area under the plasma concentration versus time curve)” value ([2]; 10 mg/kg (p.o.), 0–6 hr) was 22119 (0–6 hr) ng · h/mL. The “AUC (total area under the plasma concentration versus time curve)” value ([2]; 10 mg/kg (p.o.), 0–∞) was 24867 (0–∞) ng · h/mL, the “CL (apparent plasma clearance)” value ([2]; 10 mg/kg (p.o.), line of AUC 0–6 hr) was 8.5 mL/min/kg and the “CL (apparent plasma clearance)” value ([2]; 10 mg/kg (p.o.), line of AUC 0–∞) was 6.7 mL/min/kg. For the same molecule, the clearance [2, 6] was 31.7 mL/min/kg, the MRT [2, 6] was 24 min and the clearance [2, 7] was 30.9 mL/min/kg. For the same molecule, the MRT [2, 7] was 36 min, the MRT ([2]; po, 10 mg/kg (p.o.), line of AUC 0–6 hr) was 30 min and the MRT ([2]; po, 10 mg/kg (p.o.), line of AUC 0–∞) was 42 min. For the same molecule, the “% Inhibition of Eosinophil Infiltration” value (eosinophil infiltration [1]; 30 mg/kg b.i.d. × 2 days, i.v.) was 35.9% and the concentration at 15 min ([3]; 10 mg/kg) was 618 ng/mL.

In the case of `Cc1cc(CC(=O)N2C[C@@H](F)C[C@H]2COc2ccc(C(=O)O)cc2)ccc1NC(=O)Nc1ccccc1Br` [Compound 80, 4-[1-[4-[N′-(2-bromophenyl)ureido]-3-methylphenylacetyl]-(4S)-fluoro-(2S)-pyrrolidinyl]methoxybenzoic acid], the “AUC (total area under the plasma concentration versus time curve)” value ([4]; 10 mg/kg (i.v.), 0–6 hr) is reported as 5259 (0–6 hr) ng · h/mL, the “AUC (total area under the plasma concentration versus time curve)” value ([4]; 10 mg/kg (i.v.), 0–∞) is reported as 5389 (0–∞) ng · h/mL and the “AUC (total area under the plasma concentration versus time curve)” value ([4]; 20 mg/kg (p.o.), 0–6 hr) is reported as 2190 (0–6 hr) ng · h/mL. The “AUC (total area under the plasma concentration versus time curve)” value ([4]; 20 mg/kg (p.o.), 0–∞) was 3615 (0–∞) ng · h/mL, the “CL (apparent plasma clearance)” value ([4]; 20 mg/kg (p.o.), line of AUC 0–6 hr) was 152.24 mL/min/kg and the “CL (apparent plasma clearance)” value ([4]; 20 mg/kg (p.o.), line of AUC 0–∞) was 92.21 mL/min/kg. It also gave a clearance [4, 8] of 31.7 mL/min/kg, an MRT [4, 8] of 24 min and a clearance [4, 9] of 30.9 mL/min/kg. It also gave an MRT [4, 9] of 36 min, an MRT ([4]; po, 20 mg/kg, 20 mg/kg (p.o.), line of AUC 0–6 hr) of 138 min and an MRT ([4]; po, 20 mg/kg, 20 mg/kg (p.o.), line of AUC 0–∞) of 390 min. For the same molecule, the “% Inhibition of Eosinophil Infiltration” value (eosinophil infiltration [5]) was 65.3% and the concentration at 15 min ([3]; 10 mg/kg) was 693 ng/mL.

For `O=C(Nc1ccc(CC(=O)N2C[C@@H](F)C[C@H]2COc2ccc(C(=O)O)cc2)cc1Cl)Nc1ccccc1Br` [Compound 92, 4-[1-[4-[N′-(2-bromophenyl)ureido]-3-chlorophenylacetyl]-(4S)-fluoro-(2S)-pyrrolidinyl]methoxybenzoic acid], the “% Inhibition of Eosinophil Infiltration” value (eosinophil infiltration [5]) was 43.1% and the concentration at 15 min ([3]; 10 mg/kg) was 2160 ng/mL.

In the case of `O=C(Nc1ccccc1Cl)Nc1ccc(CC(=O)N2C[C@@H](F)C[C@H]2COc2ccc(C(=O)O)cc2)cc1Br` [Compound 95, 4-[1-[3-bromo-4-[N′-(2-chlorophenyl)ureido]phenylacetyl]-(4S)-fluoro-(2S)-pyrrolindinyl]methoxybenzoic acid], the “% Inhibition of Eosinophil Infiltration” value (eosinophil infiltration [5]) is reported as 40.9%.

Molecule `COc1cc(CC(=O)N2C[C@@H](Cl)C[C@H]2COc2ccc(C(=O)O)cc2)ccc1NC(=O)Nc1ccccc1Cl` [Compound 102, 4-[(4S)-chloro-1-[3-methoxy-4-[N′-(2-chlorophenyl)ureido]phenylacetyl]-(2S)-pyrrolidinyl]methoxybenzoic acid] has a melting point of 126 to 131 °C and a concentration at 15 min ([3]; 10 mg/kg) of 503 ng/mL.

`COc1cc(CC(=O)N2C3CCCCC3C[C@H]2COc2ccc(C(=O)O)cc2)ccc1NC(=O)Nc1ccccc1Cl` (stereo partly drawn) [Compound 166, 4-[1-[4-[N′-(2-chlorophenyl)ureido]-3-methoxyphenylacetyl]-(2S)-octahydroindolylmethoxy]benzoic acid] gave a melting point of 133 to 136 °C and a concentration at 15 min ([3]; 10 mg/kg) of 360 ng/mL.

For `COc1cc(CC(=O)N2C3CCCCC3C[C@H]2COC2CCC(C(=O)O)CC2)ccc1NC(=O)Nc1ccccc1Br` (stereo partly drawn) [Compound 179, cis-4-[-1-[4-[N′-(2-bromophenyl)ureido]-3-methoxylphenylacetyl]-(2S)-octahydroindolylmethoxy]cyclohexanecarboxylic acid], the melting point was 115 to 120 °C and the concentration at 15 min ([3]; 10 mg/kg) was 428 ng/mL.

With `C=CCN(CCOc1ccc(C(=O)O)cc1)C(=O)Cc1ccc(NC(=O)Nc2ccccc2Br)c(OC)c1` [Compound 311, 4-[2-N-allyl-N-[4-[N′(2-bromophenyl)ureido]-3-methoxyphenyl]acetamido]ethoxybenzoic acid] the “% Inhibition of Eosinophil Infiltration” value (eosinophil infiltration [1]; 50 mg/kg t.i.d. × 2 days, p.o.) was 42.5% and the “% Inhibition of Eosinophil Infiltration” value (eosinophil infiltration [1]; 50 mg/kg t.i.d. × 2 days, s.c., 50 mg/kg) was 80.2% and 49.3%.

With `COC(=O)c1ccc(OCCN(CCN2CCOCC2)C(=O)Cc2ccc(NC(=O)Nc3ccccc3C)c(OC)c2)cc1` [Compound 314, methyl 4-[2-N-[2-(4-morpholinyl)ethyl]-N-[3-methoxy-4-[N′-(2-methylphenyl)ureido]phenyl]-acetamido]ethoxybenzoate] the “% Inhibition of Eosinophil Infiltration” value (eosinophil infiltration [1]; 50 mg/kg t.i.d. × 2 days, p.o.) was 18.9% and the concentration at 30 min ([3]; 50 mg/kg) was 2310 ng/mL.

With `COc1cc(CC(=O)N(CCOc2ccc(C(=O)OC(C)C)cc2)CCN2CCOCC2)ccc1NC(=O)Nc1ccccc1C` [Compound 318, isopropyl 4-[2-N-[2-(4-morpholinyl)ethyl]-N-[3-methoxy-4-[N′-(2-methylphenyl)ureido]phenyl]acetamido]ethoxybenzoate] the concentration at 30 min ([3]; 50 mg/kg) was 2100 ng/mL.

For `COc1cc(CC(=O)N(CCOc2ccc(C(=O)O)cc2)CCN2CCC(F)(F)C2)ccc1NC(=O)Nc1ccccc1Br` [Compound 319, 4-[2-N-[2-(3,3-difluoro-1-pyrrolidinyl)ethyl]-N-[4-[N′-(2-bromophenyl)ureido]-3-methoxyphenyl]acetamido]ethoxybenzoic acid sodium salt], the concentration at 15 min ([3]; 50 mg/kg) was 603 ng/mL.

`C=CCN(CC=C)CCN(CCOc1ccc(C(=O)O)cc1)C(=O)Cc1ccc(NC(=O)Nc2ccccc2Cl)c(OC)c1` [Compound 323, 4-[2-N-(N′, N′-diallyl)ethyl-N-[4-[N′-(2-chlorophenyl)ureido]-3-methoxyphenylacetamido]ethoxy]benzoic acid sodium salt] gave a concentration at 15 min ([3]; 50 mg/kg) of 1420 ng/mL.

Reference: patent publication US7179819B2, “VLA-4 inhibitor compounds” (Daiichi Pharmaceutical Co., Ltd., priority 1999, dated 2007)
